One series is described as follows: in vitro. The note with it: human.
Series [1] relates to coxsackievirus B1 (Cox B1). Nature of the series: Multicycle cytopathic effect (CPE) reduction assay. Type of series: cell-based. The settings on record: Enterovirus B, B1, 72 h, read-out: EC50 CoxB1. On the technique in general: Damage to the host cells serves as the signal in cytopathic effect assays.
The next series relates to HRV 71. Nature of the series: Cytopathic effect (CPE) inhibition assay. Type of series: cell-based, human rhinovirus. The settings on record: Human rhinovirus sp., 72 h; host cell HeLa, 3 days, MEM/2% FBS, MTT assay; read-out: EC50 HRV 71.
For a further series, the system named is poliovirus 3 (PV3). Put plainly: microbe, parasite or virus in culture. The settings on record: Enterovirus C, 72 h, read-out: EC50 PV3. The class given is cell-based.
A short description of series [2]: Cytotoxicity (CC50) in multicycle CPE reduction assay, MTS. The note with it: human.
In series [3] the test system is coxsackievirus B3 (Cox B3). Nature of the series: Multicycle cytopathic effect (CPE) reduction assay. Type of series: cell-based. The settings on record: Enterovirus B, B3, 72 h, read-out: EC50 CoxB3.
Another series concerns HRV 14. Nature of the series: Cytopathic effect (CPE) inhibition assay. The class given is cell-based, human rhinovirus. The note with it: Human rhinovirus sp., HeLa, 72 h, host cell HeLa, 3 days, MEM/2% FBS, MTT assay; read-out: EC50 HRV 14.
For the next series, the system named is HRV 21. Nature of the series: Cytopathic effect (CPE) inhibition assay. The class given is cell-based, human rhinovirus. The settings on record: Human rhinovirus sp., 72 h; host cell HeLa, 3 days, MEM/2% FBS, MTT assay; read-out: EC50 HRV 21.

Values after ≈ are worked out from the molar mass of the structure shown. Where only a bound is given, the exact number is not on record here.

In the series “in vitro”, `CC(C)c1ccc2c(c1)OC1(O)c3ccccc3C(=O)C21NC(=O)C(=O)C(C)(C)C` (stereo not shown) [Example 37, N-(4b-hydroxy-7-isopropyl-10-oxo-4b, 10-dihydro-9bH-indeno[1,2-b]benzofuran-9b-yl)-3,3-dimethyl-2-oxo butanamide] yielded a CC50 of over 10 µg/mL. The EC50 is under 0.1 µg/mL in series [1]; over 10 µg/mL in the series with HRV 71; under 10 µg/mL with poliovirus 3 (PV3); under 0.1 µg/mL in series [3]; under 0.1 µg/mL with HRV 14; over 10 µg/mL in the series with HRV 21. The CC50 at 3 days in series [2] was over 10 µg/mL.

As to `CC(C)NC(=O)CCC(=O)NC12C(=O)c3ccccc3C1(O)Oc1cc(C(C)C)ccc12` (stereo not shown) [Example 45, N1-(4b-hydroxy-7-isopropyl-10-oxo-4b, 10-dihydro-9bH-indeno[1,2-b]benzofuran-9b-yl)-N4-isopropyl succinamide], the CC50 in the series “in vitro” is over 10 µg/mL. Moreover, the EC50 in series [1] is under 0.1 µg/mL; in the series with poliovirus 3 (PV3), under 10 µg/mL; in series [3], under 0.1 µg/mL. The compound further showed a CC50 at 3 days in series [2] of over 10 µg/mL.

`CC(C)c1ccc2c(c1)OC1(O)c3ccccc3C(=O)C21NC(=O)C(=O)Cc1ccccc1[N+](=O)[O-]` (stereo not shown) [Example 3, N-(4b-hydroxy-7-isopropyl-10-oxo-9b, 10-dihydro-4bH-indeno[1,2-b]benzofuran-9b-yl)-3-(2-nitrophenyl)-2-oxo propanamide] registered a CC50 in “in vitro” of 1.76 µg/mL (≈ 3.62 µM). The EC50 in series [1] was 0.013 µg/mL (≈ 0.0267 µM); in the series with HRV 71, over 1.76 µg/mL; in the series with poliovirus 3 (PV3), under 1 µg/mL; in series [3], 0.015 µg/mL (≈ 0.0308 µM); with HRV 14, over 1.76 µg/mL; in the series on HRV 21, over 1.76 µg/mL. In series [2], this compound gave a CC50 at 3 days of 2.38 µg/mL (≈ 4.89 µM).

In “in vitro”, `COc1cc(C(=O)C(=O)NC23C(=O)c4ccccc4C2(O)Oc2cc(C(C)C)ccc23)cc(OC)c1OC` (stereo not shown) [Example 23, N-(4b-hydroxy-7-isopropyl-10-oxo-4b, 10-dihydro-9bH-indeno[1,2-b]benzofuran-9b-yl)-2-oxo-2-(3,4,5-trimethoxyphenyl)acetamide] registered a CC50 of over 10 µg/mL. For the same compound, the EC50 is under 0.1 µg/mL in series [1]; over 10 µg/mL in the series with HRV 71; under 10 µg/mL in the series with poliovirus 3 (PV3); under 0.1 µg/mL in series [3]; under 10 µg/mL with HRV 14; over 10 µg/mL in the series on HRV 21. Besides, the CC50 at 3 days in series [2] was over 10 µg/mL.

As for `COc1cc(C(=O)C(=O)NC23C(=O)c4cccc([N+](=O)[O-])c4C2(O)Oc2cc(C(C)C)ccc23)cc(OC)c1OC` (stereo not shown) [Example 58, N-(4b-hydroxy-7-isopropyl-4-nitro-10-oxo-4b, 10-dihydro-9bH-indeno[1,2-b]benzofuran-9b-yl) 2-oxo-2-(3,4,5-trimethoxyphenyl)acetamide], in the series “in vitro”, the CC50 was over 10 µg/mL. The half-maximal effective concentration (EC50) in series [1] is under 10 µg/mL; in the series on HRV 71, over 10 µg/mL; in the series on poliovirus 3 (PV3), over 10 µg/mL; in series [3], under 10 µg/mL; with HRV 14 it was under 10 µg/mL; in the series on HRV 21, over 10 µg/mL. The compound further came in with a CC50 at 3 days in series [2] of over 10 µg/mL.

In the series “in vitro”, `CC(C)CC(=O)C(=O)NC12C(=O)c3cccc([N+](=O)[O-])c3C1(O)Oc1cc(C(C)C)ccc12` (stereo not shown) [Example 38, N-(4b hydroxyl-7-isopropyl-4-nitro-10-oxo-4b, 10-dihydro-9bH-indeno[1,2-b]benzofuran-9b-yl)-4-methyl-2-oxo pentanamide] came in with a CC50 of over 10 µg/mL. Further, the EC50 in series [1] was under 1 µg/mL; with HRV 71 it was over 10 µg/mL; in the series with poliovirus 3 (PV3) it was under 10 µg/mL; in series [3], under 1 µg/mL; in the series on HRV 14 it was under 10 µg/mL; with HRV 21 it was over 10 µg/mL. The compound further had a CC50 at 3 days in series [2] of over 10 µg/mL.

Consider `CC(C)c1ccc2c(c1)OC1(O)c3ccccc3C(=O)C21NC(=O)CCC(=O)N(C)C` (stereo not shown) [Example 44, N1-(4b-hydroxy-7-isopropyl-10-oxo-4b, 10-dihydro-9bH-indeno[1,2-b]benzofuran-9b-yl)-N4, N4-dimethyl succinamide], for which the EC50 in series [1] is under 0.1 µg/mL; with poliovirus 3 (PV3), under 10 µg/mL; in series [3] it was under 0.1 µg/mL. For the same compound, in series [2], the CC50 at 3 days was over 10 µg/mL.

In general, EC50 refers to the concentration that produces a half-maximal response.

The values are drawn from patent publication US9951058B2, “Compound, pharmaceutically acceptable salt or optical isomer thereof, method for preparing the same, and pharmaceutical composition for prevention or treatment of viral diseases containing same as active ingredient” (Korea Research Institute of Chemical Technology, priority 2012, dated 2018).
